For 1 compound, EC50 and Kd results are on record in publication doi:10.1101/2025.03.13.642871v2 (biorxiv, 2026).

One may read the pEC50 as the EC50 on a negative log10 scale, so that one unit is a factor of ten. A higher pEC50 goes with a small EC50. What is called pKd is the Kd on a negative log10 scale, so that one unit is a factor of ten. The low end stands for a large Kd, the high end for a small Kd.

In assay [1] the target is p300 (Homo sapiens, UniProt Q09472). The assay can be described thus: cell-free H3K27 acetylation, immunoblot. The assay is classed as biochemical. (In western blotting, separated proteins are transferred to a membrane and probed.)
The target of assay [2] is T1, p300 bromodomain (Homo sapiens, UniProt Q09472).
T1 sequence (Q09472 1049-1156 limits assumed): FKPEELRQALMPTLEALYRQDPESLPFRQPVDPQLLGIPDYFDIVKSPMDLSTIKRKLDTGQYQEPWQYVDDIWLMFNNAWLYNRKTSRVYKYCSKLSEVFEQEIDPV
Description: SPR, single-cycle kinetics, NTA chip. The assay is classed as binding. (In general: In SPR one partner is held on a chip, and binding of the other changes the refractive index at the surface.)

The target of assay [3] is CREBBP (Homo sapiens, UniProt Q92793). The assay can be described thus: cell-free H3K27 acetylation, immunoblot. The assay is classed as biochemical.

pEC50, pKd: −log10 of the molar value.

CREBBP, sequence (Q92793 2-2442): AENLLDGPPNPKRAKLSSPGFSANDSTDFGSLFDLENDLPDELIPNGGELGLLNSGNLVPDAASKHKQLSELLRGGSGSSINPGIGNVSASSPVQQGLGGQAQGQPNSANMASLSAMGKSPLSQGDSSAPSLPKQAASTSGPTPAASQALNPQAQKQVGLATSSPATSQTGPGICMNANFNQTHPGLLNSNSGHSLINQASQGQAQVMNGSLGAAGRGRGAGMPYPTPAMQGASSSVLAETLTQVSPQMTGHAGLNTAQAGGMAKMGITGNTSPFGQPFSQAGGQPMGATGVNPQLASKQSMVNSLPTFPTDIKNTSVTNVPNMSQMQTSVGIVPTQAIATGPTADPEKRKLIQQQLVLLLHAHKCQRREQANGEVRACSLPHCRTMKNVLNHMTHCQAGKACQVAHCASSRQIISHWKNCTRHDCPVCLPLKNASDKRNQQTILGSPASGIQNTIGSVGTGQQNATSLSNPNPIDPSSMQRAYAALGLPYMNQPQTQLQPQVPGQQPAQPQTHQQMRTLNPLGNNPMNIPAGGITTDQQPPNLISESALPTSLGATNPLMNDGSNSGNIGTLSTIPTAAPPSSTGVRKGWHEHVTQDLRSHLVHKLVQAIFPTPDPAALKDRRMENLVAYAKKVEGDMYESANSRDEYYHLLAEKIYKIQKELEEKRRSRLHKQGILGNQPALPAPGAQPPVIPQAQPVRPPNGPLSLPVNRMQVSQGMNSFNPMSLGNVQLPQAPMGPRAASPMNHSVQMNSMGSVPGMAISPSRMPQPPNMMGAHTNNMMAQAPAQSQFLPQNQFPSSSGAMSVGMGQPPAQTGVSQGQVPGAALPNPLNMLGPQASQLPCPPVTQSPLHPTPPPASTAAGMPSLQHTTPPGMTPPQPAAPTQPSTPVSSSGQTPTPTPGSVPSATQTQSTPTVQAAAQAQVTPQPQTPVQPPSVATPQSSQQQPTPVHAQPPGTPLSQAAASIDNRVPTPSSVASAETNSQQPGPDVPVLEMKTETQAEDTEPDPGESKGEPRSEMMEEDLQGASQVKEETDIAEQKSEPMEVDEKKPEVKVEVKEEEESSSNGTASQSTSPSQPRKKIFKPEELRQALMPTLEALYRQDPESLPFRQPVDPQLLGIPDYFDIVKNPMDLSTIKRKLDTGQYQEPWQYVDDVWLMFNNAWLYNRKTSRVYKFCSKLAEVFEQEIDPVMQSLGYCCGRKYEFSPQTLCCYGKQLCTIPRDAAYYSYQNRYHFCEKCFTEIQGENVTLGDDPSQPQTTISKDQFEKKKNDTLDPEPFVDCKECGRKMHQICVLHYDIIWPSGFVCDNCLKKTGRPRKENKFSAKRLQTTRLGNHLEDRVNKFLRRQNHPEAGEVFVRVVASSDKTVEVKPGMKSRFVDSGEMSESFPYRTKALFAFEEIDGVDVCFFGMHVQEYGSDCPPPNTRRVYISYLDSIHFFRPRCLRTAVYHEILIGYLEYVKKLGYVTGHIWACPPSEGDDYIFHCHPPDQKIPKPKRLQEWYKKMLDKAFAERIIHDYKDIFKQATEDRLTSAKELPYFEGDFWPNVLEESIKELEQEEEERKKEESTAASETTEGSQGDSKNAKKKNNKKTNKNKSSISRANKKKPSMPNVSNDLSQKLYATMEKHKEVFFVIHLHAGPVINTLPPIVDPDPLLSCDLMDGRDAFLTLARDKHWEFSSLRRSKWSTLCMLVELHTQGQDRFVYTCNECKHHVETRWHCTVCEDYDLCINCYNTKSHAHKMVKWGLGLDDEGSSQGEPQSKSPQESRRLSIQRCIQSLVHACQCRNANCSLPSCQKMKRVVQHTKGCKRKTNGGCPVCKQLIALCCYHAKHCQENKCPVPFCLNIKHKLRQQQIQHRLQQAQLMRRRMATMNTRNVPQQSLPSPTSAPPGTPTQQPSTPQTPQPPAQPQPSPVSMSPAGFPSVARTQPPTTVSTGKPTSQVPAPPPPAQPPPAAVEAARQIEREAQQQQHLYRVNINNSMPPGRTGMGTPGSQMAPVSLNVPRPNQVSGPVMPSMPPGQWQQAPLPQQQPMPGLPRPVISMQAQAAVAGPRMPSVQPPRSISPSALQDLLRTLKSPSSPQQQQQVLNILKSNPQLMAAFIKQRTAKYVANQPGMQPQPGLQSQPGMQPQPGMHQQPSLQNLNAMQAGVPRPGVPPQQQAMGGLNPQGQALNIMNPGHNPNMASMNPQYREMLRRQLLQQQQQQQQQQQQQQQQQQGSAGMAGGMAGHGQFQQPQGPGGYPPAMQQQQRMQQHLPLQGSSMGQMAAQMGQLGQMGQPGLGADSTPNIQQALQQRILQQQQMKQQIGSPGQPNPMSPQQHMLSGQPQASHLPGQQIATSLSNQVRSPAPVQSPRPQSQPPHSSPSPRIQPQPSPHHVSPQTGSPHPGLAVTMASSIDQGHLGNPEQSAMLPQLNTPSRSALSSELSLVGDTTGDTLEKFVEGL
p300, sequence (Q09472 2-2414): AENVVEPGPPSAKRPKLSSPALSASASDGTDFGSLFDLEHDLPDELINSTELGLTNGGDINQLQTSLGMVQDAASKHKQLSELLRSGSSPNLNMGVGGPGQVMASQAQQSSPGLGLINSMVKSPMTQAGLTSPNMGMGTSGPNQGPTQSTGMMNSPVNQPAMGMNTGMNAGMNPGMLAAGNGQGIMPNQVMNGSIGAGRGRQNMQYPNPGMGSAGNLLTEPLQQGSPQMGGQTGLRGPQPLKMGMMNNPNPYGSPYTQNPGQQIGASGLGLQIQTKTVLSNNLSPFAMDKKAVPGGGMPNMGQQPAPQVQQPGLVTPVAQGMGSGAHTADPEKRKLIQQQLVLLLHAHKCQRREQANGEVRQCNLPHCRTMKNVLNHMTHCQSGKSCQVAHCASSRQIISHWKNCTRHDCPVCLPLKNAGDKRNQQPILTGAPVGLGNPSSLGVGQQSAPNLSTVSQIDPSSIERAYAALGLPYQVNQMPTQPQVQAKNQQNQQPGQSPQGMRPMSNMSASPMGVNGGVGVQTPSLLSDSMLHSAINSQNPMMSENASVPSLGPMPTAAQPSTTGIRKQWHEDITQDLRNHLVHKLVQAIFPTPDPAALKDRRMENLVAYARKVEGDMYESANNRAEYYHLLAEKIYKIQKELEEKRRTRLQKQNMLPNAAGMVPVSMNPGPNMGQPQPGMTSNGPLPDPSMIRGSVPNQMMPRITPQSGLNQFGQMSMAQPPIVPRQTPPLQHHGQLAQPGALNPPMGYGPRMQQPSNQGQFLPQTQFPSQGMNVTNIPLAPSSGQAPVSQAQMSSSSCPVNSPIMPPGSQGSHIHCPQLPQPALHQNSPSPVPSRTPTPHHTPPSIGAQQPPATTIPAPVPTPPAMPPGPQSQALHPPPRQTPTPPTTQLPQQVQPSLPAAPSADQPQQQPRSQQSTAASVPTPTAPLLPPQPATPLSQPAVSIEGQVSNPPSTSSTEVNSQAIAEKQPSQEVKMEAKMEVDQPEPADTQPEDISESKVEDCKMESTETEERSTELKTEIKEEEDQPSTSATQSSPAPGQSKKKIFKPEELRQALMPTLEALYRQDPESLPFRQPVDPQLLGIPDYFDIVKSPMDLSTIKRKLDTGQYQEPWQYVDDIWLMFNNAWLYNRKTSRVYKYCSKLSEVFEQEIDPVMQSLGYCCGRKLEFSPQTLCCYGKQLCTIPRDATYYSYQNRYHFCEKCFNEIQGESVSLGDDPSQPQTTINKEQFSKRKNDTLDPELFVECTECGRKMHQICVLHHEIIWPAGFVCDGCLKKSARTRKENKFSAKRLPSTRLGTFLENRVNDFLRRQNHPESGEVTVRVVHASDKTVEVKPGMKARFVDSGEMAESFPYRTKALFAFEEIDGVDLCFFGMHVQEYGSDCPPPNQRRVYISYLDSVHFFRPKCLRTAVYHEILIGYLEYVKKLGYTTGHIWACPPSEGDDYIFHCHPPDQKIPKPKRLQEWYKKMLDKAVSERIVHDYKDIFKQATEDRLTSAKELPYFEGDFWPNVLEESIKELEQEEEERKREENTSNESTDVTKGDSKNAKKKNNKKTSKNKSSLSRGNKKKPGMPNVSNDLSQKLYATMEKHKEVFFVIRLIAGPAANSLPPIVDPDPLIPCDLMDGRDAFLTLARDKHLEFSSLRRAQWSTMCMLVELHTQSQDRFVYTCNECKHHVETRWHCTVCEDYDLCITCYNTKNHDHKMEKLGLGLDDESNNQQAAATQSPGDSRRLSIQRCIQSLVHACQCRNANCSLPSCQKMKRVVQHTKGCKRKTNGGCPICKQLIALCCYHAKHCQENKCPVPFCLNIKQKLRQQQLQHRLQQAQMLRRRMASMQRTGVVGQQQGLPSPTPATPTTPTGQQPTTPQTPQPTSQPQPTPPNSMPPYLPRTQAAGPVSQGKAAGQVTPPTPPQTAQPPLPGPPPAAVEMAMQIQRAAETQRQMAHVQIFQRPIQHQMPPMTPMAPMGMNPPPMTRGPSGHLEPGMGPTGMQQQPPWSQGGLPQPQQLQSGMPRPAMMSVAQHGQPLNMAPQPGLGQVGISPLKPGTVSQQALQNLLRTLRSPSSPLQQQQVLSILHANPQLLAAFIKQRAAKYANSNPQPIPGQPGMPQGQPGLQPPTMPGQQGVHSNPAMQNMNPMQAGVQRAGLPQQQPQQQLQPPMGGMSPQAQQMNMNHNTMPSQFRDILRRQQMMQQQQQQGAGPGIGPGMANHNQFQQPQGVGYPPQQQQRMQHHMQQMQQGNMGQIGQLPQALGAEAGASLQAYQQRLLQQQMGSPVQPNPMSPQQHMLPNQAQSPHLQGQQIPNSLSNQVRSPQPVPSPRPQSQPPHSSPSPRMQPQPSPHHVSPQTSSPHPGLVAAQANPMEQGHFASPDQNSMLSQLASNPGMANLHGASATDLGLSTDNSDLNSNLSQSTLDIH

Consider `CCOc1cccc(OCCN(C)C)c1C(=O)Nc1ccc(Cl)c(C(F)(F)F)c1` [YF2], for which the pEC50 was 5.36 in assay [1] and 4.80 in assay [3]. In assay [2], this compound had a pKd of 5.35.
